Data from article PMC6469177, “[^177Lu]Lu-PSMA-617 Salivary Gland Uptake Characterized by Quantitative In Vitro Autoradiography” (Pharmaceuticals, 2019).

What was measured:
[1] = biological target: T1, prostate-specific membrane antigen (PSMA) (Sus scrofa, UniProt O77564); experiment: single-concentration ([…]) blocking of […]Lu-PSMA-617 binding, autoradiography
T1 construct: gene FOLH1; pig salivary gland tissue cryosections

[2] = biological target: T2, prostate-specific membrane antigen (PSMA) (Homo sapiens, UniProt Q04609); experiment: blocking of […]Lu-PSMA-617 binding with […] 2-PMPA, autoradiography
T2 construct: gene FOLH1

[3] = biological target: T1, prostate-specific membrane antigen (PSMA); experiment: radioligand competition with […]Lu-PSMA-617, autoradiography on pig salivary gland tissue

T1 sequence (O77564 whole entry): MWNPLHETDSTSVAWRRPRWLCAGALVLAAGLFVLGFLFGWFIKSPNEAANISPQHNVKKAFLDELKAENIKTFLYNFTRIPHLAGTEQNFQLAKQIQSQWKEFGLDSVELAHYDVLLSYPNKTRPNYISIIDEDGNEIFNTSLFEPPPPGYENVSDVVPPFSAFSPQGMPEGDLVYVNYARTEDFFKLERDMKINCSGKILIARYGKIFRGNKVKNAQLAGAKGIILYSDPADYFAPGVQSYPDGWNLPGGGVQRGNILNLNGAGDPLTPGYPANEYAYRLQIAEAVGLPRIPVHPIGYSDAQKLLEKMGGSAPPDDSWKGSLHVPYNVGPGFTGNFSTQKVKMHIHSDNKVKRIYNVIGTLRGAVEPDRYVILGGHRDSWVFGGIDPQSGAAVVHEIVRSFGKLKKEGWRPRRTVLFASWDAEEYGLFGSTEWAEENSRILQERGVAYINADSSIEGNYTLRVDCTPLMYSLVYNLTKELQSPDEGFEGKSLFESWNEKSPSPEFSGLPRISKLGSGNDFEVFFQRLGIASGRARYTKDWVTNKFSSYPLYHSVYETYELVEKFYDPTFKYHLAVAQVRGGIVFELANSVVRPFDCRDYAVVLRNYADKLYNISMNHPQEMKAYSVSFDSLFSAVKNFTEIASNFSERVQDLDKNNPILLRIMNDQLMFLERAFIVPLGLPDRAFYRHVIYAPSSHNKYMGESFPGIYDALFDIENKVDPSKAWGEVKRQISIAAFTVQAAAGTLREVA
T2 sequence (Q04609 whole entry): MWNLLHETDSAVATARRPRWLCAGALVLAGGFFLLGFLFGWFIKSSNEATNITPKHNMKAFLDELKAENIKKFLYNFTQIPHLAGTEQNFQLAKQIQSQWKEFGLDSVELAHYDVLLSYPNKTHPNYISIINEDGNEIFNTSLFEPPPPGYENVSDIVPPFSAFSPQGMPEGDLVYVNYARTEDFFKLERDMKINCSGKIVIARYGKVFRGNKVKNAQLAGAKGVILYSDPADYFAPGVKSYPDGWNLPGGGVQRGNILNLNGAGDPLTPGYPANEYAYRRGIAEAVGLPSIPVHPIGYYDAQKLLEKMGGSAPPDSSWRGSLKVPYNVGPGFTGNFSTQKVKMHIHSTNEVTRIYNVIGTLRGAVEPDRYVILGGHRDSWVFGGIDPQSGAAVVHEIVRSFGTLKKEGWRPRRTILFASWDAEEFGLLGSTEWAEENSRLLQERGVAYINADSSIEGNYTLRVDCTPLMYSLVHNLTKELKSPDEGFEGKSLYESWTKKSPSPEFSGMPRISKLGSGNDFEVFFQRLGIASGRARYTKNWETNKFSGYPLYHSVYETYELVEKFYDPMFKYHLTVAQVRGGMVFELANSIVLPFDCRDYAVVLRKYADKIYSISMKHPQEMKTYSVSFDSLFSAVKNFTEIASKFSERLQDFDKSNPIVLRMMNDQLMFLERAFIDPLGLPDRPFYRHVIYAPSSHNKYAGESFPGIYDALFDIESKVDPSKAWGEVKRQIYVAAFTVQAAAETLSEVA

| Structure (SMILES) | single-concentration (80 μM) blocking of [177Lu]Lu-PSMA-617 binding, autoradiogr [1] | blocking of [177Lu]Lu-PSMA-617 binding with 80 μM 2-PMPA, autoradiography [2] | IC50 [3] [nM] |
| --- | --- | --- | --- |
| O=C(O)CCC(CP(=O)(O)O)C(=O)O (stereo not drawn) [2-PMPA, 2-Phosphonomethyl pentanedioic acid] | Additional blocking with 2-PMPA, a highly potent PSMA-inhibitor, resulted in a reduced uptake of radioligand in the glandular areas | In contrast, LNCaP membrane pellets only showed a negligible non-specific bound fraction. | – |
| O=C(O)CC[C@H](NC(=O)N[C@@H](CCCCNC(=O)[C@H](Cc1ccc2ccccc2c1)NC(=O)[C@H]1CC[C@H](CNC(=O)CN2CCN(CC(=O)O)CCN(CC(=O)O)CCN(CC(=O)O)CC2)CC1)C(=O)O)C(=O)O [PSMA-617] | – | – | 6 ± 0.1 |
